Laboratory results published in publication PMC2777746 (ACS chemical biology, 2009).

How the values were obtained:
Solubility in water = format: physicochemical
[1] = test system: C. albicans group I intron precursor; assay: Inhibition of C. albicans group I intron precursor self-splicing; format: biochemical, Candida albicans; conditions: read-out: IC50 for inhibition of precursor self-splicing; 2 mM Mg2+ (H2Mg buffer: 50 mM Na HEPES pH 7.5, 135 mM KCl), 1 mM nucleotide bulk yeast tRNA competitor, 100 µM GMP; four parameter logistic fit

Compound	solubility in water (Solubility in water)	IC50 [1] [µM]
NCCc1c[nH]c2ccccc12 [Compound 4, tryptamine]	not soluble in water	
N=C(N)c1ccc(OCCCCCOc2ccc(C(=N)N)cc2)cc1 [Pentamidine, pentamidine]		200 ± 35
c1ccc(Cn2cc(CN(Cc3cn(Cc4ccccc4)nn3)Cc3cn(Cc4ccccc4)nn3)nn2)cc1 [TBTA, tris(benzyltriazolylmethyl)amine]		> 5000
